Paper PMC9297976 (Journal of Applied Toxicology, 2021)

Key:
medaka ARβ (mArβ) [1] = biological target: T1, medaka ARβ (mArβ) (Oryzias latipes, UniProt D1MV73); test: Medaka ARβ reporter gene assay, agonist assay; format: cell-based, Japanese medaka (Oryzias latipes)
T1 sequence (D1MV73 1-744): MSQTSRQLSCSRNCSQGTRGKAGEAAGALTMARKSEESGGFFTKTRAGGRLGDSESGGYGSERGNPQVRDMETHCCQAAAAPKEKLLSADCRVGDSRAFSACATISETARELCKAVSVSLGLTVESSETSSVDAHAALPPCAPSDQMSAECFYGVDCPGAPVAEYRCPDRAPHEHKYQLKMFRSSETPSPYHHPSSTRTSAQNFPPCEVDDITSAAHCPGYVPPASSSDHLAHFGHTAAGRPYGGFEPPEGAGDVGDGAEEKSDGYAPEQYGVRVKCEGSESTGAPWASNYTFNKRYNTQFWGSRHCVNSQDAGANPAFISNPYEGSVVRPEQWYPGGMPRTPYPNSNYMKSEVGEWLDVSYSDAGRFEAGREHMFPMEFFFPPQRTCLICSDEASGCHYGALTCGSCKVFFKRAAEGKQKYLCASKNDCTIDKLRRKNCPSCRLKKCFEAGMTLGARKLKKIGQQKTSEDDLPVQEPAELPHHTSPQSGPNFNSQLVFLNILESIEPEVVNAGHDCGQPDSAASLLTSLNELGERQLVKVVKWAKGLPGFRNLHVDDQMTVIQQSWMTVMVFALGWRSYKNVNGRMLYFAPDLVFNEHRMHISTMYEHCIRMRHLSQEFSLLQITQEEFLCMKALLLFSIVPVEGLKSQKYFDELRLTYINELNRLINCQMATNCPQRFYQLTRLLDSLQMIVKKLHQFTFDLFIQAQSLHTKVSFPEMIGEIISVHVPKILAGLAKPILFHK

medaka ARβ (mArβ) [2] = biological target: T1, medaka ARβ (mArβ); test: Medaka ARβ reporter gene assay, antagonist assay; format: cell-based, Japanese medaka (Oryzias latipes)
medaka Esr1 (mEsr1) [3] = biological target: T2, medaka Esr1 (mEsr1) (Oryzias latipes, UniProt P50241); test: cell-based; parameters: species or system Japanese medaka (Oryzias latipes)
T2 sequence (P50241 1-620): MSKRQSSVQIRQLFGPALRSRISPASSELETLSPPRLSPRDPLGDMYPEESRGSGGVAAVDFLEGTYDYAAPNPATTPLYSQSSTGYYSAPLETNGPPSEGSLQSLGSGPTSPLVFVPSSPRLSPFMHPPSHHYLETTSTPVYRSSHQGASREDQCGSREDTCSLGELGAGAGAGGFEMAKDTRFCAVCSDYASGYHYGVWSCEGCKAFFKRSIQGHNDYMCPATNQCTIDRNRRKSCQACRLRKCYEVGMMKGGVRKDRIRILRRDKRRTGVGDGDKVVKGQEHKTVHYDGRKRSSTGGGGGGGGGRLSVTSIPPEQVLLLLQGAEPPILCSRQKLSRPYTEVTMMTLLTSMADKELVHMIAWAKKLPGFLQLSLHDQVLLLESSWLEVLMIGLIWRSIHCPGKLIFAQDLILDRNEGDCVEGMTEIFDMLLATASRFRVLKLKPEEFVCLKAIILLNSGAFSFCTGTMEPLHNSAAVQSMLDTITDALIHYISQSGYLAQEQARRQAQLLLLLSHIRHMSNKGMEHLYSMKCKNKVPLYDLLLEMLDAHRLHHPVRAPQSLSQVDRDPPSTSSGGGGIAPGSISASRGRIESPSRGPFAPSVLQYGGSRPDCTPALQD

medaka Esr1 (mEsr1) [4] = biological target: T2, medaka Esr1 (mEsr1); test: Medaka Esr1 reporter gene assay, antagonist assay; format: cell-based, Japanese medaka (Oryzias latipes)
[5] = system: Japanese medaka (Oryzias latipes); test: Fish Short‐Term Reproduction Assay; format: in vivo; conditions: for LOECREPRO: LOEC on reproduction (fecundity and/or fertility); for minimal effective concentration: Oryzias latipes, 504 h, read-out: LOECmVTG; for LOECTOX: lowest observed effect concentration on mortality; for GSI Female / GSI Male / HSI Female / HSI Male / Length Female / Length Male / Weight Female / Weight Male: completion of exposure
[6] = mode of action in which IC50 or IC30 was obtained in RGA
[7] = 4.67 mg/L measured, 21 d, sig. ↑ vs control
[8] = measured concentration 0.155 mg/L
[9] = measured concentration 0.826 mg/L
[10] = measured concentration 4.67 mg/L
[11] = measured concentration 0.349 mg/L
[12] = measured concentration 1.02 mg/L

## CC(C)(c1ccc(O)cc1)c1ccc(O)cc1 [BPA, Bisphenol A]
Medaka ARβ (mArβ) [1]; MAC = 1.0 × 10^−5 M
  Agonistic activity: NE (MAC = 1.0 × 10^−5 M)
Medaka ARβ (mArβ) [2]
  IC50: 7000 nM
Medaka ARβ (mArβ) [2]; [6]
  In vitro positive: aAr: aAr
Medaka ARβ (mArβ) [2]; transcriptional activity on mArβ by 11KT
  Antagonistic activity on mArβ (in words): inhibitory potency
Medaka Esr1 (mEsr1) [3]
  EC50: 86 nM
Medaka Esr1 (mEsr1) [3]; mode of action in which EC50 or PC10 was obtained in RGA
  In vitro positive: Esr: Esr
Medaka Esr1 (mEsr1) [4]; E2 spiked at 1.0 nM (B), MAC = 1.0 × 10^−5 M
  Antagonistic activity: NE (MAC = 1.0 × 10^−5 M)^(B)
[5]; 0.155 mg/L measured, 21 d
  Fertility rate: 96 ± 2.1%
  Hepatic VTG, female: 435 ± 65 ng/mg‐liver
  Hepatic VTG, male: 0.5 ± 0.0 ng/mg‐liver
  Mortality: 17%
  Mortality, number of dead fish: 4
  Number of total eggs (per female per day): 14 ± 1.8
  SSC female (joint plates with papillary processes): 0 ± 0
  SSC male (joint plates with papillary processes): 74 ± 3.6
[5]; 0.826 mg/L measured, 21 d
  Fertility rate: 94 ± 1.9%
  Hepatic VTG, female: 768 ± 297 ng/mg‐liver
  Hepatic VTG, male: 0.5 ± 0.0 ng/mg‐liver
  Mortality: 8.3%
  Mortality, number of dead fish: 2
  Number of total eggs (per female per day): 14 ± 1.6
  SSC female (joint plates with papillary processes): 0 ± 0
  SSC male (joint plates with papillary processes): 71 ± 4.2
[5]; 4.67 mg/L measured, 21 d
  Hepatic VTG, female: 3,456 ng/mg‐liver
  SSC female (joint plates with papillary processes): 0 ± 0
  SSC male (joint plates with papillary processes): 76 ± 5.7
[5]; [7]
  Hepatic VTG, male: 2,804 ± 811 ng/mg‐liver
  Mortality: 71%
  Mortality, number of dead fish: 17
[5]; 4.67 mg/L measured, 21 d, sig. ↓ vs control
  Fertility rate: 59 ± 25%
[5]; 21 d
  Fecundity, number of total eggs (in words): statistically significant decrease
  LOEC, elevated hepatic VTG in males: 4.67 mg/L
[5]
  LOECREPRO: 4,670 μg/L
  minimal effective concentration: 4.67 µg/mL
  LOECTOX: 4,670 μg/L
[5]; at concentrations that did not affect number of total eggs
  Fertility rate (in words): significant decrease
[5]; [8]
  GSI Female: 6.8 ± 0.5%
  GSI Male: 0.91 ± 0.13%
  HSI Female: 3.4 ± 0.46%
  HSI Male: 2.1 ± 0.40%
  Length Female: 31.7 ± 0.9 mm
  Length Male: 33.2 ± 0.9 mm
  Weight Female: 313 ± 23 mg
  Weight Male: 290 ± 23 mg
[5]; [9]
  GSI Female: 6.0 ± 1.0%
  GSI Male: 0.80 ± 0.23%
  HSI Female: 3.3 ± 0.75%
  HSI Male: 2.3 ± 0.45%
  Length Female: 32.0 ± 0.9 mm
  Length Male: 32.5 ± 0.9 mm
  Weight Female: 342 ± 20 mg
  Weight Male: 310 ± 10 mg
[5]; [10]
  GSI Female: 2.3%
  GSI Male: 0.77 ± 0.23%
  HSI Female: 4.8%
  HSI Male: 3.4 ± 1.15%
  Length Female: 30.6 mm
  Length Male: 33.6 ± 1.9 mm
  Weight Female: 281 mg
  Weight Male: 370 ± 72 mg

## CCNc1nc(Cl)nc(NC(C)(C)C#N)n1 [CZ, Cyanazine]
Medaka ARβ (mArβ) [1]; MAC = 1.0 × 10^−4 M
  Agonistic activity: NE (MAC = 1.0 × 10^−4 M)
Medaka ARβ (mArβ) [2]; 11‐KT spiked at 50 nM (D), MAC = 1.0 × 10^−4 M
  Antagonistic activity: NE (MAC = 1.0 × 10^−4 M)^(D)
Medaka Esr1 (mEsr1) [3]; MAC = 1.0 × 10^−4 M
  Agonistic activity: NE (MAC = 1.0 × 10^−4 M)
Medaka Esr1 (mEsr1) [4]
  IC50: 610 nM
Medaka Esr1 (mEsr1) [4]; antagonist assays
  Antagonistic activity on mEsr1 (in words): inhibited the transcriptional activity on mEsr1 by E2
Medaka Esr1 (mEsr1) [4]; [6]
  In vitro positive: aEsr: aEsr
[5]; 0.349 mg/L measured, 21 d
  Fertility rate: 80 ± 19%
  Hepatic VTG, female: 2,550 ± 896 ng/mg‐liver
  Hepatic VTG, male: 0.5 ± 0.0 ng/mg‐liver
  Mortality: 4.2%
  Mortality, number of dead fish: 1
  Number of fertilized eggs (per female per day): 12 ± 5.8
  Number of total eggs (per female per day): 14 ± 5.1
  SSC female (joint plates with papillary processes): 0 ± 0
  SSC male (joint plates with papillary processes): 96 ± 5.9
[5]; 1.02 mg/L measured, 21 d
  Fertility rate: 71 ± 20%
  Hepatic VTG, female: 2,860 ± 679 ng/mg‐liver
  Hepatic VTG, male: 0.5 ± 0.0 ng/mg‐liver
  Mortality: 8.3%
  Mortality, number of dead fish: 2
  SSC female (joint plates with papillary processes): 0 ± 0
  SSC male (joint plates with papillary processes): 94 ± 23
[5]; 21 d
  Change of hepatic VTG levels in females (in words): did not reduce
  Fecundity, number of total eggs (in words): statistically significant decrease
[5]
  LOECREPRO: 1,020 μg/L
  minimal effective concentration: > 1.02 µg/mL
  LOECTOX: ND (>1,020) μg/L
[5]; chemicals with significant decrease of number of total eggs
  Fertility rate (in words): no significant effect
[5]; concentrations without overt toxicity
  LOECREPRO (reduction in fecundity or fertility): 1,020 μg/L
[5]; [11]
  GSI Female: 8.3 ± 0.9%
  GSI Male: 0.67 ± 0.11%
  HSI Female: 3.4 ± 0.69%
  HSI Male: 1.8 ± 0.18%
  Length Female: 35.8 ± 1.0 mm
  Length Male: 35.3 ± 1.1 mm
  Weight Female: 515 ± 28 mg
  Weight Male: 483 ± 50 mg
[5]; [12]
  GSI Female: 7.6 ± 0.9%
  GSI Male: 0.55 ± 0.08%
  HSI Female: 3.5 ± 0.33%
  HSI Male: 1.7 ± 0.14%
  Length Female: 35.0 ± 1.0 mm
  Length Male: 34.4 ± 0.8 mm
  Weight Female: 470 ± 49 mg
  Weight Male: 419 ± 40 mg
